According to USRE50631E1, “ROR1 antibody immunoconjugates” (VelosBio Inc., priority 2017, dated 2025):
Several values for one entry are separate records, joined by “and”; a condition that tells them apart may be missing. Equal values may be shown once. Non-standard residues stand in square brackets, D forms with d. Residues, ends and D or L forms follow the SMILES beside them. *: point of attachment. Dolaproine = CO[C@@H]([C@@H]1CCCN1)[C@@H](C)C(=O)O; Dil = CC[C@H](C)[C@H](NC)[C@@H](CC(=O)O)OC; X1 = C[C@@H](N*)[C@@H](O)c1ccccc1; NMeV = CN[C@H](C(=O)O)C(C)C

Experiments:
[1] = tested on: A549; test: Cytotoxicity in vitro (CellTiter-Glo viability), A549; assay type: cell-based, human; settings: A549 (NSCLC), 72 hours
[2] = tested on: Hep-3B; test: Cytotoxicity in vitro (CellTiter-Glo viability), Hep-3B; assay type: cell-based; settings: Homo sapiens, Hep3B; Hep-3B (HCC), 72 hours
[3] = tested on: TMD-8; test: Cytotoxicity in vitro (CellTiter-Glo viability), TMD-8; assay type: cell-based, human; settings: TMD-8 (DLBCL), 72 hours
Method: (§5) Cells were grown and distributed into 96-well plates as described in Example 5. Cells in duplicate were incubated with 3-fold serial dilution of a particular immunoconjugate (660, 220, 73.3, 24.4, 8.14, 2.71, 0.91, and 0.3 nM) for 72 hours at 37° C. and 5% CO2. […] After treatment, cell viability was determined as described in Example 5.

[4] = tested on: HBL-1; test: Cytotoxicity in vitro (CellTiter-Glo viability), HBL-1; assay type: cell-based, human; settings: HBL-1 (DLBCL), 72 hours
[5] = tested on: DOHH2; settings: read-out: EC50 (nM), cytotoxicity in vitro; DOHH2 (DLBCL), 72 hours
Method: (§1) ROR1 binding by these conjugates was tested in cell culture to define the potency of various linker-cytotoxic agent combinations. Three different types of cancer cell lines were tested: B-lymphoma cell-lines TMD-8, HBL-1, and DOHH2; triple negative breast cancer cell lines HCC1187, MDA-MB-468, Bt549; and ovarian cancer cell lines A2008, TOV112D, JHOM1, and SKOvr3.
(§2) Cells were cultured in log phase growth and distributed into 96-well plates. Each cell line was plated at a slightly different cell density, ranging from 5×10^3 to 50×10^4 cells/well. Cells in duplicate were incubated with 3-fold serial dilution of a particular immunoconjugate (10, 3.33, 1.11, 0.37, 0.12, 0.041, 0.014, and 0.0045 μM) for 72 hours at 37° C. and 5% CO2. After treatment, cells were incubated with an equal volume of CellTiter-Glo® reagent (Promega Inc.) for 15 minutes at room temperature and viability was determined by a luminometer. Curves and EC50 values were generated in GraphPad Prism using a sigmoidal dose response non-linear regression fit.
(§3) Cells were grown and distributed into 96-well plates as described in Example 5. […] After treatment, cell viability was determined as described in Example 5. Cell surface ROR1 expression was assessed by quantitative flow cytometry and ROR1 expression was characterized as MFI>30 or MFI<30 (MFI: mean fluorescent intensity).

[6] = tested on: HCC1187; test: Cytotoxicity in vitro (CellTiter-Glo viability), HCC1187; settings: read-out: EC50 (nM), cytotoxicity in vitro; HCC1187 (TNBC), 72 hours
Method: as §1, §2, §3

[7] = tested on: MDA-MB-468; test: Cytotoxicity in vitro (CellTiter-Glo viability), MDA-MB-468; settings: read-out: EC50 (nM), cytotoxicity in vitro; MDA-MB-468 (TNBC), 72 hours
Method: as §1, §2, §3

[8] = tested on: Bt549; test: Cytotoxicity in vitro (CellTiter-Glo viability), Bt549; assay type: cell-based, human; settings: Bt549 (TNBC), 72 hours
Method: as §5

[9] = tested on: OvCar4; test: Cytotoxicity in vitro (CellTiter-Glo viability), OvCar4; assay type: cell-based, human; settings: OvCar4 (Ovarian), 72 hours
[10] = tested on: TOV112D; test: Cytotoxicity in vitro (CellTiter-Glo viability), TOV112D; assay type: cell-based, human; settings: TOV112D (Ovarian), 72 hours
Method: as §5

[11] = tested on: JHOM1; test: Cytotoxicity in vitro (CellTiter-Glo viability), JHOM1; assay type: cell-based, human; settings: JHOM1 (Ovarian), 72 hours
Method: as §5

[12] = tested on: SKOvr3; test: Cytotoxicity in vitro (CellTiter-Glo viability), SKOvr3; assay type: cell-based, human; settings: SKOvr3 (Ovarian), 72 hours
Method: as §5

[13] = tested on: Mec-vector; test: Cytotoxicity in vitro (CellTiter-Glo viability), Mec-vector; settings: read-out: EC50 (nM), cytotoxicity in vitro; Mec-vector (CLL), 72 hours
Method: as §2
(§4) Cells were grown and distributed into 96-well plates as described in Example 5. Cells in duplicate were incubated with 3-fold serial dilution of a particular immunoconjugate (660, 220, 73.3, 24.4, 8.14, 2.71, 0.91, and 0.3 nM) for 72 hours at 37° C. and 5% CO2. In some experiments, cells were incubated with an immunoconjugate for 96 hours instead of 72 hours (values highlighted with “*”). After treatment, cell viability was determined as described in Example 5. Cell surface ROR1 expression was assessed by quantitative flow cytometry and ROR1 expression was characterized as MFI>30 or MFI<30 (MFI: mean fluorescent intensity). […]

[14] = tested on: Mec-ROR; test: Cytotoxicity in vitro (CellTiter-Glo viability), Mec-ROR; settings: read-out: EC50 (nM), cytotoxicity in vitro; Mec-ROR (CLL), 72 hours
Method: as §2, §4

[15] = tested on: U2932; test: Cytotoxicity in vitro (CellTiter-Glo viability), U2932; assay type: cell-based, human; settings: U2932 (DLBCL), 72 hours
[16] = tested on: WSU-DLCL; test: Cytotoxicity in vitro (CellTiter-Glo viability), WSU-DLCL; assay type: cell-based, human; settings: WSU-DLCL (DLBCL), 72 hours
[17] = tested on: DU4475; test: Cytotoxicity in vitro (CellTiter-Glo viability), DU4475; assay type: cell-based, human; settings: DU4475 (TNBC), 72 hours
[18] = tested on: HCC1937; test: Cytotoxicity in vitro (CellTiter-Glo viability), HCC1937; assay type: cell-based, human; settings: HCC1937 (TNBC), 72 hours
[19] = tested on: Hep-G2; assay type: cell-based, human; settings: Hep-G2 (HCC), 72 hours; read-out: EC50 (nM), cytotoxicity in vitro
[20] = tested on: U2OS; assay type: cell-based, human; settings: U2OS (OS), 72 hours; read-out: EC50 (nM), cytotoxicity in vitro
[21] = tested on: HOS; test: Cytotoxicity in vitro (CellTiter-Glo viability), HOS; assay type: cell-based, human; settings: HOS (OS), 72 hours
[22] = tested on: SAOS; test: Cytotoxicity in vitro (CellTiter-Glo viability), SAOS; assay type: cell-based, human; settings: SAOS (OS), 72 hours
[23] = tested on: FaDu; assay type: cell-based, human; settings: FaDu (HN), 72 hours; read-out: EC50 (nM), cytotoxicity in vitro
[24] = tested on: ES2; test: Cytotoxicity in vitro (CellTiter-Glo viability), ES2; assay type: cell-based, human; settings: ES2 (Ovarian), 72 hours
[25] = tested on: A2780; test: Cytotoxicity in vitro (CellTiter-Glo viability), A2780; assay type: cell-based, human; settings: A2780 (Ovarian), 72 hours
[26] = tested on: Bx-PC3; test: Cytotoxicity in vitro (CellTiter-Glo viability), Bx-PC3; assay type: cell-based, human; settings: Bx-PC3 (Pancreatic), 72 hours
[27] = tested on: As-PC1; test: Cytotoxicity in vitro (CellTiter-Glo viability), As-PC1; assay type: cell-based, human; settings: As-PC1 (Pancreatic), 72 hours
[28] = tested on: MDA-MB-231; test: Cytotoxicity in vitro (CellTiter-Glo viability), MDA-MB-231; assay type: cell-based, human; settings: MDA-MB-231 (TNBC), 72 hours
[29] = tested on: H460; test: Cytotoxicity in vitro (CellTiter-Glo viability), H460; assay type: cell-based, human; settings: H460 (NSCLC), 72 hours

Compound `CN(C)CCN1C(=O)c2cccc3cc4ccccc4c(c23)C1=O` [Azonafide, azonafide, reference compound] has an EC50 ([1]; Homo sapiens) of over 1000 nM and an EC50 [2] of over 1000 nM.
Work on `COc1cc2cc(c1Cl)N(C)C(=O)C[C@H](OC(=O)[C@H](C)N(C)C(=O)CCS)[C@]1(C)O[C@H]1[C@H](C)[C@@H]1C[C@@](O)(NC(=O)O1)[C@H](OC)/C=C/C=C(\C)C2` [DM1, N2′-Deacetyl-N2′-(3-mercaptol-oxopropyl)maytansine] yielded an EC50 [3] of 1.4 nM, an EC50 [4] of 9.3 nM and an EC50 [5] of 1.78 nM. It also gave an EC50 [6] of 3.9 nM, an EC50 [7] of 15.2 nM and an EC50 [8] of 0.047 nM. It also gave an EC50 [9] of over 1000 nM, an EC50 [10] of 2.4 nM and an EC50 [11] of 0.01 nM. The EC50 [12] was 9.1 nM.
For `CC[C@H](C)[C@@H]([C@@H](CC(=O)N1CCC[C@H]1[C@H](OC)[C@@H](C)C(=O)N[C@H](C)[C@@H](O)c1ccccc1)OC)N(C)C(=O)[C@@H](NC(=O)[C@@H](NC)C(C)C)C(C)C` [MMAE, monomethyl auristatin E, reference compound] (H-[NMeV]V[Dil][Dolaproine]-X1), the EC50 [13] was 0.5 nM, the EC50 [14] was 0.6 nM and the EC50 [5] was 0.007 nM. It also gave an EC50 [15] of 0.006 nM, an EC50 [16] of 0.06 nM and an EC50 [8] of 0.047 nM. For the same compound, the EC50 [17] was 2.5 nM, the EC50 [18] was over 1000 nM and the EC50 [1] was 0.06 nM. For the same compound, the EC50 [19] was over 1000 nM, the EC50 [20] was 1.2 nM and the EC50 [21] was 0.06 nM. For the same compound, the EC50 [22] was 0.05 nM, the EC50 [23] was over 1000 nM and the EC50 [9] was 24.2 nM. For the same compound, the EC50 [10] was 0.04 nM, the EC50 [11] was 0.01 nM and the EC50 [12] was 0.01 nM. For the same compound, the EC50 [24] was 1.1 nM, the EC50 [25] was 0.08 nM and the EC50 [26] was 0.04 nM. The EC50 [27] was 0.04 nM.
`COc1cccc2c1C(=O)c1c(O)c3c(c(O)c1C2=O)C[C@@](O)(C(=O)CO)C[C@@H]3O[C@H]1C[C@H]2[C@H](O[C@@H]3[C@@H](OC)OCCN32)[C@H](C)O1` [PNU-159682, reference compound] was tested, and the EC50 [28] was 0.005 nM and the EC50 [29] was 0.001 nM and 0.002 nM.
